Tests used:
Format in all cases: cell-based, human
[1] = tested on: bacteria/microbiota-reactive CFSEdim CD4+ TILs; assay: Proliferation of expanded CFSEdim CD4+ TILs that responded to the bacteria/microbiota peptide pool; details: 5 days; 4 replicate wells; Fig. 4d
[2] = tested on: bacteria/microbiota-reactive peripheral CD4+ T cells; assay: Cytokine/chemokine secretion of selected peripheral CD4+ T cells in response to LRP6; parameters: IL-1a / IL-1ß / IL-2 / IL-3 / IL-4 / IL-5 / IL-6 / IL-7 / IL-10 / IL-13 / IL-15 / IL-17A / IL-33 / TNF-a: unit not given here
[3] = tested on: CD45RA− peripheral T cells; assay: Cytokine/chemokine secretion of unselected peripheral CD4+ T cells in response to LRP6; parameters: IL-1a / IL-1ß / IL-2 / IL-3 / IL-4 / IL-5 / IL-6 / IL-7 / IL-10 / IL-13 / IL-15 / IL-17A / IL-33 / TNF-a: unit not given here; details: Unselected CD45RA- PBMCs, sheet 6c (right panel)
[4] = tested on: IPdBP-pre-stimulated peripheral memory CD4+ T cells; assay: Cytokine/chemokine response of IPdBP-pre-stimulated peripheral memory CD4+ T cells; parameters: IL-1α / IL-1β / IL-2 / IL-3 / IL-4 / IL-5 / IL-6 / IL-7 / IL-10 / IL-13 / IL-15 / IL-17A / IL-33 / TNF-α: unit not given here
[5] = Selected peripheral CD4+, sheet 6c (right panel)
[6] = secretion by IPdBP-pre-stimulated peripheral memory CD4+ T cells

## HPFALTLFEDILY [LRP6]
[1]
  recognition by CD4+ TILs pre-stimulated with the bacteria/microbiota peptide pool, by proliferation and/or GM-CSF secretion (in words): recognized
[2]; [5]
  CCL2/MCP-1: 4526.33
  CCL3/MIP-1a: 3125.42
  CCL4/MIP-1ß: 4031.29
  CCL11/Eotaxin: 4.67
  CCL19/MIP-3ß: 6.3
  CCL20/MIP-3a: 6.57
  CD40 Ligand: 1738.81
  CXCL1/GROa: 373.82
  CXCL2/GROß: 350.46
  CXCL8/IL-8: 2606.08
  CXCL10/IP-10: 147.39
  Flt-3 Ligand: 28.81
  GM-CSF: 1627.51
  Granzyme B: 2119.45
  IFN-a: 1.01
  IFN-γ: 159.02
  IL-1a: 15.17
  IL-1ra: 3794.38
  IL-1ß: 23.43
  IL-2: 10.94
  IL-3: 107.37
  IL-4: 4.49
  IL-5: 283.76
  IL-6: 167.44
  IL-7: 0.7
  IL-10: 475.26
  IL-12p70: 16.63
  IL-13: 400.29
  IL-15: 2.76
  IL-17A: 0
  IL-17E/IL-25: 0
  IL-33: 5.21
  RANTES: 798.34
  TNF-a: 1408.41
[2]; compared with the unselected cells, Extended Data Fig. 6c right
  cytokine and chemokine production of selected peripheral CD4+ T cells (in words): produced various cytokines and chemokines
[3]
  CCL2/MCP-1: 0
  CCL3/MIP-1a: 38350.7
  CCL4/MIP-1ß: 1401.95
  CCL11/Eotaxin: 0
  CCL19/MIP-3ß: 0
  CCL20/MIP-3a: 6.73
  CD40 Ligand: 1116.41
  CXCL1/GROa: 804.34
  CXCL2/GROß: 0
  CXCL8/IL-8: 0
  CXCL10/IP-10: 0
  Flt-3 Ligand: 15.31
  GM-CSF: 488.27
  Granzyme B: 0
  IFN-a: 1.18
  IFN-γ: 0
  IL-1a: 104.35
  IL-1ra: 0
  IL-1ß: 600.74
  IL-2: 0
  IL-3: 1.65
  IL-4: 0
  IL-5: 0
  IL-6: 20465.9
  IL-7: 0.54
  IL-10: 27.41
  IL-12p70: 9.74
  IL-13: 0
  IL-15: 1.25
  IL-17A: 0
  IL-17E/IL-25: 0
  IL-33: 7.76
  RANTES: 0
  TNF-a: 67.2
[4]; Extended Data Fig. 7c
  cytokine and chemokine profile of immunopeptidome-reactive peripheral CD4+ T cells (in words): secreted not only GM-CSF but also several other pro-inflammatory cytokines including IFNγ, TNF and granzyme B
[4]; [6]
  CCL2/MCP-1: 0
  CCL3/MIP-1α: 3979.57
  CCL4/MIP-1β: 19527
  CCL11/Eotaxin: 3.84
  CCL19/MIP-3β: 12.07
  CCL20/MIP-3α: 17.43
  CD40 Ligand: 4129.61
  CXCL1/GROα: 0
  CXCL2/GROβ: 123.27
  CXCL8/IL-8: 3466.89
  CXCL10/IP-10: 353.48
  Flt-3 Ligand: 131.58
  GM-CSF: 8661.95
  Granzyme B: 7766.97
  IFN-α: 8.01
  IFN-γ: 1163.95
  IL-1rα: 0
  IL-1α: 19.6
  IL-1β: 20.52
  IL-2: 11.3
  IL-3: 158.99
  IL-4: 7.36
  IL-5: 1023.08
  IL-6: 217.73
  IL-7: 2.53
  IL-10: 4192.28
  IL-12p70: 24.59
  IL-13: 3507.83
  IL-15: 4.26
  IL-17A: 4.67
  IL-17E/IL-25: 0
  IL-33: 22.2
  RANTES: 10050.3
  TNF-α: 3505.52

## REFTKATNVRLRF [LAMA5, vaccine pool peptide from laminin subunit α5]
[1]
  recognition by CD4+ TILs pre-stimulated with the bacteria/microbiota peptide pool, by proliferation and/or GM-CSF secretion (in words): recognized

From article PMC10208956, “Microbial peptides activate tumour-infiltrating lymphocytes in glioblastoma” (Nature, 2023)
